Values quoted from earlier work, collected in US11484035B2, “Synergistic composition of a nematicide” (TELLURIS BIOTECH INDIA PRIVATE LIMITED, priority 2017, dated 2022).

System: nematodes
Conditions: individual peptides

| Sequence | effective concentration for nematicidal activity |
| --- | --- |
| DLLRPVVIAPQFSRQ (Caenorhabditis elegans) [Peptide 2, 15 amino acid peptide, 99-113 amino acid stretch of CED-4 protein] | about 1 mg/ml |
| FPKFMQLHQKFY (Caenorhabditis elegans) [Peptide 12, 12 amino acid peptide, 529-540 amino acid stretch of CED-4 protein] | about 1 mg/ml |
| RQMLDRKLLLGNVPKQMTC (Caenorhabditis elegans) [Peptide 3, 19 amino acid peptide, 112-130 amino acid stretch of CED-4 protein] | about 1 mg/ml |
